Drawing on patent US20260062422A1 (Halda Therapeutics OpCo, Inc., priority 2022, published 2026), this text covers GI50 and Kd for 17 compounds.

For test [1], the system named is T-Rex 293 cell line SC cells lacking increased expression of progesterone receptor isoform B protein. Description: Cellular growth inhibition, T-Rex 293 SC cells without doxycycline, Example 47. The settings on record: T-Rex 293 SC cells not exposed to doxycycline, 72 hours, CellTiter-Glo 2.0; Table 15 (Example 47). The class given is cell-based. The method, then: The following types of cells were prepared for this experiment: (i) a T-Rex 293 cell line having increased expression of progesterone receptor isoform B protein due to exposure to doxycycline and (ii) a T-Rex 293 cell line lacking increased expression of progesterone receptor isoform B protein. Ability of the test compounds to inhibit proliferation of the foregoing cell types was evaluated according to the procedures set forth below.
The doxycycline-inducible progesterone receptor isoform B protein expressing cell line was established using the following protocol: T-Rex 293 cells were purchased from Invitrogen (Cat #R71007) and transfected using Lipofectamine 2000 with the wild-type progesterone receptor B protein sequence cloned into the pcDNA4/TO vector. Transfected cells were selected using 400 μg/mL Zeocin (Invitrogen Cat #R25001). Following selection, single clones were raised and maintained in Dulbecco's Modified Eagle Medium (DMEM) supplemented with 10% w/w Tetracycline-free fetal bovine serum (FBS) and 250 μg/mL Zeocin. Clones were analyzed for expression of progesterone receptor isoform B protein in the presence and absence of 10 ng/mL doxycycline (Sigma Cat #D9891), and a single doxycycline-inducible clone (hereinafter “SC”) was selected for use in downstream assays.
The SC cells were seeded on poly-D-lysine coated, black clear-bottom 384-well plates at 2500/well, in 25 μL Phenol Red Free Dulbecco's Modified Eagle Medium (DMEM) supplemented with 10% w/w charcoal-dextran treated fetal bovine serum (FBS) and 1% w/w pen-strep, with or without 10 ng/mL doxycycline. Pen-Strep is a commercially available mixture of penicillin G and streptomycin, which is used in mammalian cell culture media to prevent bacterial contamination. Phenol Red Free Dulbecco's Modified Eagle Medium (DMEM) supplemented with 10% w/w charcoal-dextran treated fetal bovine serum (FBS) and 1% w/w pen-strep, with or without 10 ng/mL doxycycline is herein referred to as Treatment Medium. Following seeding of cells in the plates, the plates were spun at 300×g for 30 seconds, then equilibrated to room temperature for 30 minutes, and then deposited in a humidified tissue culture incubator maintained at 37° C. with 5% CO2.
At 24 hours after seeding of the cells, dilutions of test compound were prepared in DMSO and dissolved in Treatment Medium, to achieve a final DMSO concentration of 0.5% w/w, thereby providing the Test Compound Solution. A 25 μL aliquot of the Test Compound Solution was added to cells in the well plates. An equal volume of a solution containing DMSO and Treatment Medium was used as a negative control. Following treatment of cells with Test Compound Solution or said equal volume of a solution containing DMSO and Treatment Medium, the plates were spun at 300×g for 30 seconds, and then left in an incubator for 72 hours.
At the end of the treatment duration, cell viability was quantified with CellTiter-Glo 2.0 reagent (Promega Cat #G9243). For this purpose, plates were equilibrated to room temperature for 30 minutes, and then 25 μL of CellTiter-Glo 2.0 reagent was added to cells in the plate wells. Plates were then agitated on a shaker for two minutes at 500 rpm and subsequently incubated at room temperature for 10 minutes. Following incubation, the plates were spun at 3000×g for 30 seconds, then sealed with an optical adhesive cover, and luminescence readings were measured with an EnVision Plate Reader (Perkin Elmer).
Data was normalized using zero luminescence for baseline. A four-parameter non-linear regression curve fit was applied to dose-response data in GraphPad Prism data analysis software to determine the half-maximal growth inhibitory concentration (GI50) for each test compound.
In general terms: ATP-based viability assays read luminescence as a measure of living cells.

Test [2] deals with T1, androgen receptor (Homo sapiens, UniProt P10275).
T1 sequence (P10275 1-920 T878A): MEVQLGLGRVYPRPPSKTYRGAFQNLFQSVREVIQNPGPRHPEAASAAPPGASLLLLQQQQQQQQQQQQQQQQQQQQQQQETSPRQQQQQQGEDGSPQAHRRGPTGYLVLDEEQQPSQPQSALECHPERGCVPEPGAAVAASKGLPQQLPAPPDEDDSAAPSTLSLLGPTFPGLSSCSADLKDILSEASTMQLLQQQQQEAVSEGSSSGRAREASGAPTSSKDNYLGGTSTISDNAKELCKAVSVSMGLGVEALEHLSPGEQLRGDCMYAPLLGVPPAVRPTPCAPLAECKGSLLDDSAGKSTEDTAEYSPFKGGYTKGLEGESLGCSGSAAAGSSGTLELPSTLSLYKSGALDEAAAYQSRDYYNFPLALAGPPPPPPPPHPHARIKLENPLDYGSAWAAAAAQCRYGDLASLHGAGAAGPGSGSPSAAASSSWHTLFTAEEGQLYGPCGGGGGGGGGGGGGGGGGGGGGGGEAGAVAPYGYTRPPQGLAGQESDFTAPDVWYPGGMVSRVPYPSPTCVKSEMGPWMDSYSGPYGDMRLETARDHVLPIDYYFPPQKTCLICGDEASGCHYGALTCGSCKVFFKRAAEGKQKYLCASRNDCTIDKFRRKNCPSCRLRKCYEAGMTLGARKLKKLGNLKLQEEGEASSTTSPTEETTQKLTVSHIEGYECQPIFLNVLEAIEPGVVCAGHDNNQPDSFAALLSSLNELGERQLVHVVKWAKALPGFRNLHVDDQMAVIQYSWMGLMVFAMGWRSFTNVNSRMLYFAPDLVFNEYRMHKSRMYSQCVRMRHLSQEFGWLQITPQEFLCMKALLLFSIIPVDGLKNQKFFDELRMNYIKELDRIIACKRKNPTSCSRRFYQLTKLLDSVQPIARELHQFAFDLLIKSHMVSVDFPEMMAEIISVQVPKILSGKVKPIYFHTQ
Description: Assay for binding affinity to androgen receptor ([3H]methyltrienolone radioligand, cell cytosol). To be noted: 1 nM [3H]methyltrienolone, 24 hours at 4° C., Table 5. The procedure, abridged: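 Competition binding in cell cytosol ([…]) with 1 nM [3H]methyltrienolone, 24 hours at 4° C, in pH 7.4 Hepes-Tris buffer with 5 μM triamcinolone acetonide; nonspecific binding defined by 1 μM testosterone. Filtration and scintillation counting; values reported as % inhibition of specific binding.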

As usually defined, the GI50 is the concentration that inhibits growth by half. The low end stands for greater sensitivity of the cells, the high end for lower sensitivity of the cells. With `Cc1sc2c(c1C)C(c1ccc(Cl)cc1)=N[C@@H](CC(=O)NCCOCCOCCOCCOCCN(C)c1ncc(C(=O)N[C@H]3C(C)(C)[C@H](Oc4ccc(C#N)c(Cl)c4)C3(C)C)cn1)c1nnc(C)n1-2` [Compound I-3, N-((1r,3r)-3-(3-chloro-4-cyanophenoxy)-2,2,4,4-tetramethylcyclobutyl)-2-((1-((S)-4-(4-chlorophenyl)-2,3,9-trimethyl-6H-thieno[3,2-f][1,2,4]triazolo[4,3-a][1,4]diazepin-6-yl)-2-oxo-6,9,12,15-tetraoxa-3-azaheptadecan-17-yl)(methyl)amino)pyrimidine-5-carboxamide], the GI50 in test [1] was 1500 to 3000 nM.

What is called Kd is the equilibrium constant for the complex coming apart. The low end stands for tighter binding, the high end for weaker binding. Take `Cc1sc2c(c1C)C(c1ccc(Cl)cc1)=N[C@@H](CC(=O)NCCOCCOCCOCCOCCOCCOCCN(C)c1ncc(C(=O)N[C@H]3C(C)(C)[C@H](Oc4ccc(C#N)c(Cl)c4)C3(C)C)cn1)c1nnc(C)n1-2` [Compound I-4]: in test [2], the Kd was < 50 nM. The GI50 in test [1] is 1500 to 3000 nM.

With `Cc1sc2c(c1C)C(c1ccc(Cl)cc1)=N[C@@H](CC(=O)NCCOC1CCN(c3ncc(C(=O)N[C@H]4C(C)(C)[C@H](Oc5ccc(C#N)c(Cl)c5)C4(C)C)cn3)CC1)c1nnc(C)n1-2` [Compound I-6], the Kd in test [2] was < 50 nM. The GI50 in test [1] was < 500 nM.

With `Cc1sc2c(c1C)C(c1ccc(Cl)cc1)=N[C@@H](CC(=O)NCCOCCOCCOCCOCCOC1CCN(c3ncc(C(=O)N[C@H]4C(C)(C)[C@H](Oc5ccc(C#N)c(Cl)c5)C4(C)C)cn3)CC1)c1nnc(C)n1-2` [Compound I-8], the Kd in test [2] was < 50 nM. In addition, the GI50 in test [1] was 500 to 1500 nM.

`Cc1sc2c(c1C)C(c1ccc(Cl)cc1)=N[C@@H](CC(=O)NCCOCCOCCOCCOC1CCN(c3ncc(C(=O)N[C@H]4C(C)(C)[C@H](Oc5ccc(C#N)c(Cl)c5)C4(C)C)cn3)CC1)c1nnc(C)n1-2` [Compound I-11]: the GI50 in test [1] is < 500 nM.

With `Cc1sc2c(c1C)C(c1ccc(Cl)cc1)=N[C@H](CC(=O)NCCOCCOCCOCCOCCOC1CCN(c3ncc(C(=O)N[C@H]4C(C)(C)[C@H](Oc5ccc(C#N)c(Cl)c5)C4(C)C)cn3)CC1)c1nnc(C)n1-2` [Compound I-14], the GI50 in test [1] was in the range of 1500 to 3000 nM.

In the case of `Cc1sc2c(c1C)C(c1ccc(Cl)cc1)=N[C@@H](CC(=O)NCCCCCOC1CCN(c3ncc(C(=O)N[C@H]4C(C)(C)[C@H](Oc5ccc(C#N)c(Cl)c5)C4(C)C)cn3)CC1)c1nnc(C)n1-2` [Compound I-22, N-((1r,3r)-3-(3-chloro-4-cyanophenoxy)-2,2,4,4-tetramethylcyclobutyl)-2-(4-((5-(2-((S)-4-(4-chlorophenyl)-2,3,9-trimethyl-6H-thieno[3,2-A][1,2,4]triazolo[4,3-a][1,4]diazepin-6-yl)acetamido)pentyl)oxy)piperidin-1-yl)pyrimidine-5-carboxamide], the GI50 in test [1] is > 3000 nM.

Compound `Cc1sc2c(c1C)C(c1ccc(OC3CC4(CCN(c5ncc(C(=O)N[C@H]6C(C)(C)[C@H](Oc7ccc(C#N)c(Cl)c7)C6(C)C)cn5)CC4)C3)cc1)=N[C@@H](Cc1ncco1)c1nnc(C)n1-2` [Compound I-49, N-[3-(3-chloro-4-cyano-phenoxy)-2,2,4,4-tetramethyl-cyclobutyl]-2-[2-[4-[(9S)-4,5,13-trimethyl-9-(oxazol-2-ylmethyl)-3-thia-1,8,11,12-tetrazatricyclo[8.3.0.02,6]trideca-2(6),4,7,10,12-pentaen-7-yl]phenoxy]-7-azaspiro[3.5]nonan-7-yl]pyrimidine-5-carboxamide] gave a GI50 in test [1] of 500 to 1500 nM.

`CCNC(=O)C[C@@H]1N=C(c2ccc(OCCCCc3ncc(C(=O)N[C@H]4C(C)(C)[C@H](Oc5ccc(C#N)c(Cl)c5)C4(C)C)cn3)cc2)c2c(sc(C)c2C)-n2c(C)nnc21` [Compound I-86]: the Kd in test [2] is < 50 nM.

In the case of `CCNC(=O)C[C@@H]1N=C(c2ccc(N3CCN(CC4CCN(c5ncc(C(=O)N[C@H]6C(C)(C)[C@H](Oc7ccc(C#N)c(Cl)c7)C6(C)C)cn5)CC4)CC3)cc2)c2c(sc(C)c2C)-n2c(C)nnc21` [Compound I-105, N-[3-(3-chloro-4-cyano-phenoxy)-2,2,4,4-tetramethyl-cyclobutyl]-2-[4-[[4-[4-[(9S)-9-[2-(ethylamino)-2-oxo-ethyl]-4,5,13-trimethyl-3-thia-1,8,11,12-tetrazatricyclo[8.3.0.02,6]trideca-2(6),4,7,10,12-pentaen-7-yl]phenyl]piperazin-1-yl]methyl]-1-piperidyl]pyrimidine-5-carboxamide], the Kd in test [2] is < 50 nM.

In the case of `CCNC(=O)C[C@@H]1N=C(c2ccc(N3CCC(OC4CCN(c5ncc(C(=O)N[C@H]6C(C)(C)[C@H](Oc7ccc(C#N)c(Cl)c7)C6(C)C)cn5)CC4)CC3)cc2)c2c(sc(C)c2C)-n2c(C)nnc21` [Compound I-114], the equilibrium dissociation constant (Kd) in test [2] is < 50 nM.

`CCNC(=O)C[C@@H]1N=C(c2ccc(N3CC(N(C)C4CN(c5ncc(C(=O)N[C@H]6C(C)(C)[C@H](Oc7ccc(C#N)c(Cl)c7)C6(C)C)cn5)C4)C3)cc2)c2c(sc(C)c2C)-n2c(C)nnc21` [Compound I-121]: in test [2], the Kd is < 50 nM.

For `CCNC(=O)C[C@@H]1N=C(c2ccc(N3CCC(N(C)C4CN(c5ncc(C(=O)N[C@H]6C(C)(C)[C@H](Oc7ccc(C#N)c(Cl)c7)C6(C)C)cn5)C4)CC3)cc2)c2c(sc(C)c2C)-n2c(C)nnc21` [Compound I-123], the Kd in test [2] was < 50 nM.

As to `CCNC(=O)C[C@@H]1N=C(c2ccc(N3CCC(CN4CC(Oc5ncc(C(=O)N[C@H]6C(C)(C)[C@H](Oc7ccc(C#N)c(Cl)c7)C6(C)C)cn5)C4)CC3)cc2)c2c(sc(C)c2C)-n2c(C)nnc21` [Compound I-124], the Kd in test [2] is < 50 nM.

On to `Cc1sc2c(c1C)C(c1ccc(N3CC(C4CCN(c5ncc(C(=O)N[C@H]6C(C)(C)[C@H](Oc7ccc(C#N)c(Cl)c7)C6(C)C)cn5)CC4)C3)cc1)=N[C@@H](C)c1nnc(C)n1-2` [Compound I-271], for which, in test [2], the Kd is < 50 nM.

Take `Cc1sc2c(c1C)C(c1ccc(OC3CC4(C3)CC3(CCN(c5ncc(C(=O)N[C@H]6C(C)(C)[C@H](Oc7ccc(C#N)c(Cl)c7)C6(C)C)cn5)CC3)C4)cc1)=N[C@@H](Cc1ncco1)c1nnc(C)n1-2` [Compound I-283]: the Kd in test [2] was < 50 nM.

As for `Cc1sc2c(c1C)C(c1ccc(CC3CC4(CCN(c5ncc(C(=O)N[C@H]6C(C)(C)[C@H](Oc7ccc(C#N)c(Cl)c7)C6(C)C)cn5)CC4)C3)cc1)=N[C@@H](C)c1nnc(C)n1-2` [Compound I-303], the Kd in test [2] was < 50 nM.
